According to US20040018500A1, “Methods and systems for analyzing complex biological systems” (priority 2001, published 2004):

Legend:
[1] = system: Arabidopsis thaliana plants; assay: SOA1 phenotypic analysis of herbicide-treated Arabidopsis plants; type: in vivo
[2] = system: Arabidopsis thaliana; assay: MOA1 phenotypic profiling of Arabidopsis sprayed with unknown and commercial herbicides; type: in vivo
[3] = system: Saccharomyces cerevisiae wild type strain BY4743; assay: AF1 combined gene expression and metabolite data mapped to KEGG reactions and pathways; type: cell-based
Excerpt: In AF1, two different technologies were utilized: gene expression analysis (for examination of mRNA expression) and metabolite analysis. […] As noted previously, existing metabolic databases may be helpful in practicing the methods and systems of the present invention, but many databases include limitations that make their use in data analysis and pathway mapping less than straightforward. […] This caveat to KEGG makes it difficult to pinpoint the correct pathway when attempting to link a gene to a specific pathway. […] The pathway score indicates how meaningful the mapping is, or how likely it is to be correctly indicative of the pathway involved in the perturbation under examination. The method provides a pathway score based on perturbation levels of genes and/or compounds and the information content of each gene and/or compound in the pathway, i.e., a pathway score indicates the extent to which other pathways are mapped to a gene/compound. For example, imagine that two genes are perturbed in a particular experiment. One gene maps to only one pathway, giving a high degree of probability that the perturbed pathway is the one identified in the mapping. The second gene maps to three pathways. In the later example, there is only one-third the probability that the pathway identified in the mapping is the one perturbed. The present invention provides a method for calculating the pathway scores, so that more weight is given to a score of a gene or compound that maps to only one pathway than to a score of a gene or compound that maps to multiple pathways. […] Where n=the total number of genes in the pathway; ipath—count=the number of pathways containing a gene; and j=the number of genes in the pathway that are perturbed. Another factor to be considered when weighting a pathway score is the degree of perturbation. Degree of perturbation can be calculated, for example, based on a number of standard deviations from a norm, and included in an equation such as the one shown above, so that not only the number of pathways is taken into account, but also accounts for the amount of gene transcript or compound present as compared to a control. Compounds were also linked to pathways using the KEGG database. […] Of the 676 compounds under consideration, 77 were detected in the AF1 samples. […] The multiple mapping feature of KEGG makes it difficult to pinpoint the correct pathway when trying to link a compound to a specific pathway. […] A pathway score calculation is applied to the compounds to account for both information content (number of pathways a compound maps to) and perturbation level. The data were then combined to determine the number of reactions showing an enzyme and at least one compound perturbed, and to determine the number of pathways having at least one enzyme and one perturbed compound perturbed. The results of the analysis are represented in Tables 16 and 17, and were difficult to interpret, illustrating that the ability to draw conclusions from compound mapping to pathways is limited when absent additional data.

[4] = system: Saccharomyces cerevisiae wild type strain BY4743; assay: AF1 metabolite analysis (GC-MS, LC-MS) of yeast treated with antifungal drugs; type: cell-based; conditions: P < 0.1; yeast, 2×MIC, two hours

Nc1nc[nH]n1 [Amitrole]
characteristic symptoms (phenotypic analysis) ([1]; herbicide-treated Arabidopsis): leaf bleaching and leaf enlargement
Symptom Class ([1]; three-week-old Arabidopsis treated with herbicide, phenotypes shown in FIG. 12): 2
phenotype observed [2]: exhibited chlorosis and not true bleaching

CC(=O)N1CCN(c2ccc(OCC3COC(Cn4ccnc4)(c4ccc(Cl)cc4Cl)O3)cc2)CC1 (centres unmarked) [Ketoconazole]
Number of Reactions Having an Enzyme and at Least One Compound Perturbed [3]: 21
# Compounds perturbed [4]: 15
